The NIST ThermoML archive (doi:10.1021/je900756g)

Settings: Liquid; for mass density: Bellows volumetry; for vapor or sublimation pressure: Closed cell (Static) method

F/C=C/C(F)(F)F [trans-1,3,3,3-tetrafluoropropene]
mass density [kg/m3]
Settings | 310 K | 320 K | 330 K | 340 K | 350 K | 360 K | 370 K
2000 kPa | 1130.2 | 1093.3 | 1054.2 | 1008.1 | 953.6 | – | –
3000 kPa | 1136.3 | 1100.9 | 1063.6 | 1021 | 972.3 | 910.5 | 821.5
4000 kPa | 1142.1 | 1108 | 1072.2 | 1032.2 | 987.6 | 934.2 | 867.6
5000 kPa | 1147.7 | 1114.7 | 1080 | 1042.4 | 1000.5 | 952.9 | 896.7

Settings | vapor or sublimation pressure [kPa]
310 K | 703
320 K | 920
330 K | 1183
340 K | 1500
350 K | 1876
360 K | 2320
370 K | 2841
380 K | 3458
